Starred links: 1 amine or outer side, 2 acyl side, 3 side chain; linkers in the order of their positions; H or OH if unused. Positions of bridges follow the written chain, without caps; N, C: chain ends. Non-standard residues stand in square brackets, D forms with d. Residues, ends and D or L forms follow the SMILES beside them. X5 = O=C([C@@H]1[C@@H]2CCCC[C@@H]2CN1[*:1])[*:2]; Leu(4,5-dehydro) = C=C(C)C[C@H](N)C(=O)O; X4 = C=C(C)C[C@@H](N[*:1])C(=O)[*:2]; dVal(3-OH) = CC(C)(O)[C@@H](N)C(=O)O; Val(3-OH) = CC(C)(O)[C@H](N)C(=O)O; tBuAla = CC(C)(C)C[C@H](N)C(=O)O; 4Amb = NCc1ccc(C(=O)O)cc1
What was measured:
[1] = Aggregation / solubility at 1 mM; format: physicochemical; settings: summary calls it solubility at 1mM
Procedure: (§1) The solubilities of the synthesized compounds were determined experimentally (Supplementary Table 2). Most compounds were highly soluble at a 1 mM concentration; however, some compounds tended to form aggregates. These compounds were excluded from further studies. In addition, we experimentally determined the lipophilicity of each compound, logP(oct/wat)=log(soluteoct/solutewat ), which is the partition coefficient of a compound between aqueous (water) and lipophilic (octanol) phases (Supplementary Table 2).

[2] = Lipophilicity of peptides, logP(oct/wat); format: physicochemical
Procedure: as §1
Lipophilicity of peptides. Two separate solutions were obtained: an aqueous phosphate buffer with saturated n-octanol, and an n-octanol solution with saturated phosphate buffer. Peptides were then dissolved and diluted in the phosphate buffer. Different partitions were then made with different n-octanol to water ratio before shaking for an hour at room temperature. The aqueous phase and n-octanol were allowed to equilibrate, and each phase was extracted and analyzed for peptide concentrations. The ratio of peptide concentration in n-octanol to that in water is expressed as log(P).

[3] = biological target: EB3 interactions with IP3R3-GFP (Homo sapiens, UniProt Q9UPY8); assay: Competitive binding: inhibition of EB3 interaction with IP3R3-GFP in vitro; format: biochemical; settings: 250 nM
Source text: We tested the efficacy of twenty-three compounds in inhibiting EB3 interactions with IP3R3-GFP via an in vitro approach developed by us[12],[13]. […] Guided by NMR studies, we predicted the binding pose of 109 to EB3 via AutoDock Vina[13],[24],[25].

[4] = test system: CD1 mice, cecal ligation and puncture; assay: Polymicrobial sepsis model (CLP); format: in vivo, mouse; settings: CLP 18-gauge; monotherapy: VT-109 0.5 µmol/kg bw or enrofloxacin 5 mg/kg bw

EB3 interactions with IP3R3-GFP, sequence (Q9UPY8 whole entry): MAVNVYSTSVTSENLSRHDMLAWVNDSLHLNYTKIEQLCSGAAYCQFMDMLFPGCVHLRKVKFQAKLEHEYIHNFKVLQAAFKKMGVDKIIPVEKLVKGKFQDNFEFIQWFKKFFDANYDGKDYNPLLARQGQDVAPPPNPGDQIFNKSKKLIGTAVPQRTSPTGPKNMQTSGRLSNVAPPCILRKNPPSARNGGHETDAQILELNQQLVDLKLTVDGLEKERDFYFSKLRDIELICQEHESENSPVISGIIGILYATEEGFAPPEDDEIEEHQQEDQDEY

| SMILES | Aggregation at 1mM [1] | logD [2] | inhibition at 0.25 µM [3] [%] | survival [4] |
| --- | --- | --- | --- | --- |
| CC[C@H](C)[C@H](NC(=O)[C@@H](NC(=O)[C@@H]1CCCN1C(=O)[C@@H](NC(=O)[C@H](CCC(=O)O)NC(=O)[C@@H](NC(=O)[C@H](N)Cc1ccccc1)[C@@H](C)O)[C@@H](C)CC)[C@@H](C)O)C(=O)O [compound 004, (S)-4-((2S,3R)-2-((R)-2-amino-3-phenylpropanamido)-3-hydroxybutanamido)-5-(((2S,3S)-1-((S)-2-(((2S,3R)-1-(((1S,2S)-1-carboxy-2-methylbutyl)amino)-3-hydroxy-1-oxobutan-2-yl)carbamoyl)pyrrolidin-1-yl)-3-methyl-1-oxopentan-2-yl)amino)-5-oxopentanoic acid] (H-[dF]TEIPTI-OH) | 0.35 | -0.81 | 39 | – |
| CC[C@H](C)[C@@H]1NC(=O)[C@H]([C@@H](C)O)NC(=O)[C@@H]2CCCN2C(=O)[C@H]([C@@H](C)CC)NC(=O)[C@H](CCC(=O)O)NC(=O)[C@H]([C@@H](C)O)NC(=O)[C@H](Cc2ccccc2)NC1=O [compound 012, 3-((3S,6S,9S,12S,15S,18S,23aS)-9-benzyl-6,18-di((S)-sec-butyl)-3,12-bis((R)-1-hydroxyethyl)-1,4,7,10,13,16,19-heptaoxodocosahydro-1H-pyrrolo[1,2-a][1,4,7,10,13,16,19]heptaazacyclohenicosin-15-yl)propanoic acid.] (cyclo(EIPTIFT)) | – | -0.04 | 49 | – |
| CC[C@H](C)[C@@H]1NC(=O)[C@H]([C@@H](C)O)NC(=O)[C@@H]2CCCN2C(=O)[C@H]([C@@H](C)CC)NC(=O)[C@H](CCC(=O)O)NC(=O)[C@H]([C@@H](C)O)NC(=O)[C@H](Cc2ccccc2)NC(=O)CNC(=O)CNC(=O)[C@H]([C@@H](C)O)NC(=O)CC[C@@H](C(=O)O)NC(=O)[C@@H]2CCCN2C(=O)[C@H](CC(C)C)NC1=O [compound 013, (6S,9S,12S,15S,24S,29S,31aS,37S,40S,43S,45aS)-15-benzyl-6,40-di((S)-sec-butyl)-9-(2-carboxyethyl)-12,24,43-tris((R)-1-hydroxyethyl)-37-isobutyl-5,8,11,14,17,20,23,26,31,36,39,42,45-tridecaoxotetratetracontahydro-5H-dipyrrolo[2,1-c:2',1'-o][1,4,7,10,13,16,19,22,25,28,31,34,37]tridecaazacyclohentetracontine-29-carboxylic acid] (TGGFTEIPTILPE-OH; lactam N-13) | – | -0.27 | 51 | – |
| CC[C@H](C)[C@H](NC(=O)[C@@H](NC(=O)[C@@H]1CCCN1C(=O)[C@H](CC(C)(C)C)NC(=O)[C@@H](CCC(=O)O)NC(=O)[C@@H](NC(=O)[C@@H](N)Cc1ccccc1)C(C)(C)O)[C@@H](C)O)C(=O)O [compound 016, (R)-4-((S)-2-((S)-2-amino-3-phenylpropanamido)-3-hydroxy-3-methylbutanamido)-5-(((S)-1-((S)-2-(((2S,3R)-1-(((1S,2S)-1-carboxy-2-methylbutyl)amino)-3-hydroxy-1-oxobutan-2-yl)carbamoyl)pyrrolidin-1-yl)-4,4-dimethyl-1-oxopentan-2-yl)amino)-5-oxopentanoic acid] (H-F[Val(3-OH)][dE][tBuAla]PTI-OH) | 0.18 | -0.3 | 48 | – |
| C=C(C)C[C@H](NC(=O)[C@H](CCC(=O)O)NC(=O)[C@@H](NC(=O)[C@@H](N)Cc1ccccc1)[C@@H](C)O)C(=O)N1CCC[C@H]1C(=O)N[C@H](C(=O)N[C@H](C(=O)O)[C@@H](C)CC)[C@@H](C)O [compound 019, (S)-4-((2S,3R)-2-((S)-2-amino-3-phenylpropanamido)-3-hydroxybutanamido)-5-(((S)-1-((S)-2-(((2S,3R)-1-(((1S,2S)-1-carboxy-2-methylbutyl)amino)-3-hydroxy-1-oxobutan-2-yl)carbamoyl)pyrrolidin-1-yl)-4-methyl-1-oxopent-4-en-2-yl)amino)-5-oxopentanoic acid] (H-FTE[Leu(4,5-dehydro)]PTI-OH) | weak signal | -1 | 51 | – |
| CC[C@H](C)[C@H](NC(=O)[C@@H](NC(=O)[C@@H]1CCCN1C(=O)[C@@H](NC(=O)c1ccc(CNC(=O)[C@H](NC(=O)[C@@H](N)Cc2ccccc2)C(C)(C)O)cc1)[C@@H](C)CC)[C@@H](C)O)C(=O)O [compound 021, (4-(((R)-2-((S)-2-amino-3-phenylpropanamido)-3-hydroxy-3-methylbutanamido)methyl)benzoyl)-L-isoleucyl-L-prolyl-L-threonyl-L-isoleucine] (H-F[dVal(3-OH)][4Amb]IPTI-OH) | weak signal | -0.24 | 35 | – |
| CC[C@H](C)[C@H](NC(=O)[C@H](NC(=O)[C@@H]1[C@@H]2CCCC[C@@H]2CN1C(=O)[C@H](CC(C)(C)C)NC(=O)[C@H](CCC(=O)O)NC(=O)[C@H](NC(=O)[C@@H](N)Cc1ccccc1)C(C)(C)O)C(C)(C)O)C(=O)O [compound 040, (S)-4-((R)-2-((S)-2-amino-3-phenylpropanamido)-3-hydroxy-3-methylbutanamido)-5-(((S)-1-((1S,3aS,7aR)-1-(((R)-1-(((1S,2S)-1-carboxy-2-methylbutyl)amino)-3-hydroxy-3-methyl-1-oxobutan-2-yl)carbamoyl)octahydro-2H-isoindol-2-yl)-4,4-dimethyl-1-oxopentan-2-yl)amino)-5-oxopentanoic acid.] (H-F[dVal(3-OH)]E[tBuAla][X5][dVal(3-OH)]I-OH) | – | 0.67 | 50 | – |
| C=C(C)C[C@H](NC(=O)[C@@H](NC(=O)[C@@H]1CCCN1C(=O)[C@@H](CC(=C)C)NC(=O)[C@H](CCC(=O)O)NC(=O)[C@H](NC(=O)[C@H](N)Cc1ccccc1)C(C)(C)O)[C@@H](C)O)C(=O)O [compound 049, (S)-2-((2S,3R)-2-((S)-1-((R)-2-((S)-2-((R)-2-((R)-2-amino-3-phenylpropanamido)-3-hydroxy-3-methylbutanamido)-4-carboxybutanamido)-4-methylpent-4-enoyl)pyrrolidine-2-carboxamido)-3-hydroxybutanamido)-4-methylpent-4-enoic acid.] (H-[dF][dVal(3-OH)]E[X4]PT[Leu(4,5-dehydro)]-OH) | – | -0.71 | 52 | – |
| CCN1CCN(c2cc3c(cc2F)c(=O)c(C(=O)O)cn3C2CC2)CC1 [enrofloxacin, reference compound] | – | – | – | neither antibiotics nor VT-109 monotherapy (0.5 µmol/kg bw) significantly improved survival |

Source: publication PMC12627862, “Therapeutic targeting of endothelial calcium signaling accelerates the resolution of lung injury” (Signal Transduction and Targeted Therapy, 2025)
